In article PMC12019880 (Frontiers in Pharmacology, 2025):
Where “and” joins values, the source holds several entries; their conditions need not be identical. Identical values can stand only once.

Tests used:
[1] = system: TTX-S Na^+ currents from adult mouse DRG neurons
[2] = system: Na^+ current of larger diameter DRG neurons; type: cell-based, mouse
ryanodine receptor = conditions: ref Ronjat et al., 2016; cited from earlier work
[3] = system: mice (adult female Swiss); test: automated von Frey test (tactile sensitivity); type: in vivo, mouse
C57Bl6 mice = conditions: mouse, in vivo, ip
hNav1.5 = test: automated patch-clamp, hNav1.5; type: cell-based, human; conditions: up to 3,300 nM (Figure 4c)
Protocol: (§1) CHO cells stably expressing hNav1.7 were cultured in Dulbecco’s Modified Eagle’s Medium (DMEM) supplemented with 10% foetal calf serum, 1 mM pyruvic acid, 4 mM glutamine, 10 U/mL penicillin and 10 μg/mL streptomycin (Gibco, Grand Island, NY), and incubated at 37°C in a 5% CO2 atmosphere. For electrophysiological recordings, cells were detached with trypsin and floating single cells were diluted (∼300,000 cells/mL) in medium containing (in mM): 4 KCl, 140 NaCl, five glucose, 10 2-[4-(2-hydroxyethyl)piperazin-1-yl]ethanesulfonic acid (HEPES, pH 7.4, osmolarity 290 mOsm). Similar culturing conditions were used for HEK-293 cell lines expressing hNav1.1, hNav1.2, hNav1.3, hNav1.5 and hNav1.6 channels. The plasmid pcDNA3.1+/C-(K)-DYK (Genscript, Piscataway, New Jersey, USA) was used for transient expression of mNav1.7 in HEK-293T cells using the Maxcyte electroporation system.
(§2) Chips with single-hole and high-resistance 5.14 ± 0.02 MΩ (n = 384) were used for HEK-293 cell recordings. Only cells with seal resistance above 500 MΩ and Rs values <15 MΩ were kept for analyses. All Rs values were compensated at 90%. Voltage pulses and whole-cell recordings were achieved using the PatchControl384 v1.5.3 software (Nanion Technologies, Munich, Germany) and the Biomek v1.0 interface (Beckman Coulter, Villepinte, France). […]

hNav1.4 = test: automated patch-clamp, hNav1.4; type: cell-based, human
Description: (§3) Chips with single-hole and high-resistance 5.14 ± 0.02 MΩ (n = 384) were used for HEK-293 cell recordings. Only cells with seal resistance above 500 MΩ and Rs values <15 MΩ were kept for analyses. All Rs values were compensated at 90%. Voltage pulses and whole-cell recordings were achieved using the PatchControl384 v1.5.3 software (Nanion Technologies, Munich, Germany) and the Biomek v1.0 interface (Beckman Coulter, Villepinte, France). Prior to recordings, dissociated cells were shaken at 60 rpm in a cell hotel reservoir at 10°C. After cell catching, sealing, whole-cell formation, liquid application, recording, and data acquisition were all performed sequentially and automatically. The intracellular solution contained (in mM): 10 KCl, 110 kF, 10 NaCl, 1 MgCl2, 1 CaCl2, 10 Ethylene Glycol Tetraacetic Acid (EGTA) and 10 HEPES (pH 7.2, osmolarity 280 mOsm), and the extracellular solution (in mM): 140 NaCl, 4 KCl, 2 CaCl2, 1 MgCl2, five glucose, and 10 HEPES (pH 7.4, osmolarity 298 mOsm). Whole-cell experiments were done at −100 mV holding potential, while currents triggered at 0 mV test potential were sampled at 10 kHz (sweeps every 8 s). Compounds were prepared at various concentrations in the extracellular solution supplemented with 0.3% BSA and distributed in 384-well plates according to a pre-designed template. […]

[4] = system: TTX-R Na^+ currents from adult mouse DRG neurons
hNav1.7 = hNav1.7 (Homo sapiens, UniProt Q15858); test: automated patch-clamp, hNav1.7 stably expressed in CHO cells; type: cell-based
Sequence of hNav1.7 (Q15858 whole entry): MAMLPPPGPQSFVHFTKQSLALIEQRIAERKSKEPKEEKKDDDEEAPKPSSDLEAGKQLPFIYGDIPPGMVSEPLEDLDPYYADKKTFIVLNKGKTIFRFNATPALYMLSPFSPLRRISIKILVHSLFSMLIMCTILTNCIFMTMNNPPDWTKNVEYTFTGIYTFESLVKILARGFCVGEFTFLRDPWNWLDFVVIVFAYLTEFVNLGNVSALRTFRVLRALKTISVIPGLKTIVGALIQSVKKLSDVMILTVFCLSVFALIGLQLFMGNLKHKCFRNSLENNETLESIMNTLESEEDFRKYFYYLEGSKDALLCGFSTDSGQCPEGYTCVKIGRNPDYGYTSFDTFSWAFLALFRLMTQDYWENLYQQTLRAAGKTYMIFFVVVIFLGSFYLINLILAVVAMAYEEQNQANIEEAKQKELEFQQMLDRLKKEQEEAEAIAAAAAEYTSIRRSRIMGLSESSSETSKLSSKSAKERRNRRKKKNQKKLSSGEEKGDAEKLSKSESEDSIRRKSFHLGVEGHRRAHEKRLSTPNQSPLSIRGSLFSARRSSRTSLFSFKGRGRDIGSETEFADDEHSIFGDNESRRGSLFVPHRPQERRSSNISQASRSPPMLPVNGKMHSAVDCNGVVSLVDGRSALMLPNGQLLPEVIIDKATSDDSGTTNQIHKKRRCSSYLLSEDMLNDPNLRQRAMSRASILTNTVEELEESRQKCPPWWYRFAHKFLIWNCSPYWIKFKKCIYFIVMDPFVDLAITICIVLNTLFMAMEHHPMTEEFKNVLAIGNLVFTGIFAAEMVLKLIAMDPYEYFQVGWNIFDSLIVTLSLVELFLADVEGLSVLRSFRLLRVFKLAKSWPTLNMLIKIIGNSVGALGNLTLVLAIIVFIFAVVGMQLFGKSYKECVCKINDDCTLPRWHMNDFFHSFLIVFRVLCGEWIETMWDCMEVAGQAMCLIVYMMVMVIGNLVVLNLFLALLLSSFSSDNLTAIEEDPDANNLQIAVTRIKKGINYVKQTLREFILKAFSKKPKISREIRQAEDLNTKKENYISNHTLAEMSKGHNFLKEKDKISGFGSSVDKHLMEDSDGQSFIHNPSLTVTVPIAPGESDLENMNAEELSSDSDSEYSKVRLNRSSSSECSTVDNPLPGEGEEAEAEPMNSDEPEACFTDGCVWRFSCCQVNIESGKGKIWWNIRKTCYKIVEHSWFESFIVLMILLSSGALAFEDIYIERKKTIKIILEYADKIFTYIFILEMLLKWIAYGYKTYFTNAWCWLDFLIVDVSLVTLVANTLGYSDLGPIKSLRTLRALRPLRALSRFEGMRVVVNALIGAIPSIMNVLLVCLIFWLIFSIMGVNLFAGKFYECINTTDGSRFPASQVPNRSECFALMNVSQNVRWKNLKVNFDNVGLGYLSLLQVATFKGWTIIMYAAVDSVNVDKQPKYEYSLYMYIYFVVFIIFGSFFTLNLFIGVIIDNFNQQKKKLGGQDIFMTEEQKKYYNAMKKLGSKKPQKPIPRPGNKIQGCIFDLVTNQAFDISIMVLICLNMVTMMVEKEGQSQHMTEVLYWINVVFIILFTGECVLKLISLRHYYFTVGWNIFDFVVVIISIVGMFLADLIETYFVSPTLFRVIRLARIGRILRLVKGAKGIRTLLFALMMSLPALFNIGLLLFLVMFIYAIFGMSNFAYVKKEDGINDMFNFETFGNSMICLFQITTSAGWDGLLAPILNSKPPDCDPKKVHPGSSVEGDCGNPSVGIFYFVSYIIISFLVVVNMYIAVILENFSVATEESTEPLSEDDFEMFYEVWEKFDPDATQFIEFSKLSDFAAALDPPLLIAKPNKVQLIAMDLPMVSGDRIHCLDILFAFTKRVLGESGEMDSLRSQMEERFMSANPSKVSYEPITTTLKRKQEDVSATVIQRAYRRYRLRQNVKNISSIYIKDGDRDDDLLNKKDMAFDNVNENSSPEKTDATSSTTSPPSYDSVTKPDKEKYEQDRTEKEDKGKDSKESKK
Protocol: as §1
as §3, with “s).” for “s). Compounds were prepared at various concentrations in the extracellular solution supplemented with 0.3% BSA and distributed in 384-well plates according to a pre-designed template.”

[5] = system: mice (adult female Swiss); conditions: mouse, in vivo
Description: (§4) The study was experimentally designed to have group sizes of at least six animals per group, with intravenous injection as an exclusion criterion. In addition, randomization and blinding (one of the two experimenters being blind to treatment group) were undertaken in all animal experiments. […] Prior to testing, each mouse underwent a 20-min acclimation to the experimental laboratory environment (in its home cage).

mNav1.7 = target: T1, mNav1.7 (Mus musculus, UniProt Q62205); test: automated patch-clamp, mNav1.7 electroporated in HEK293 cells; type: cell-based; conditions: mNav1.7 (Figure 4b)
T1 construct: DYK (FLAG) tag of vector pcDNA3.1+/C-(K)-DYK (C); host or cells: HEK-293T cells, Maxcyte electroporation
T1 sequence (Q62205 whole entry): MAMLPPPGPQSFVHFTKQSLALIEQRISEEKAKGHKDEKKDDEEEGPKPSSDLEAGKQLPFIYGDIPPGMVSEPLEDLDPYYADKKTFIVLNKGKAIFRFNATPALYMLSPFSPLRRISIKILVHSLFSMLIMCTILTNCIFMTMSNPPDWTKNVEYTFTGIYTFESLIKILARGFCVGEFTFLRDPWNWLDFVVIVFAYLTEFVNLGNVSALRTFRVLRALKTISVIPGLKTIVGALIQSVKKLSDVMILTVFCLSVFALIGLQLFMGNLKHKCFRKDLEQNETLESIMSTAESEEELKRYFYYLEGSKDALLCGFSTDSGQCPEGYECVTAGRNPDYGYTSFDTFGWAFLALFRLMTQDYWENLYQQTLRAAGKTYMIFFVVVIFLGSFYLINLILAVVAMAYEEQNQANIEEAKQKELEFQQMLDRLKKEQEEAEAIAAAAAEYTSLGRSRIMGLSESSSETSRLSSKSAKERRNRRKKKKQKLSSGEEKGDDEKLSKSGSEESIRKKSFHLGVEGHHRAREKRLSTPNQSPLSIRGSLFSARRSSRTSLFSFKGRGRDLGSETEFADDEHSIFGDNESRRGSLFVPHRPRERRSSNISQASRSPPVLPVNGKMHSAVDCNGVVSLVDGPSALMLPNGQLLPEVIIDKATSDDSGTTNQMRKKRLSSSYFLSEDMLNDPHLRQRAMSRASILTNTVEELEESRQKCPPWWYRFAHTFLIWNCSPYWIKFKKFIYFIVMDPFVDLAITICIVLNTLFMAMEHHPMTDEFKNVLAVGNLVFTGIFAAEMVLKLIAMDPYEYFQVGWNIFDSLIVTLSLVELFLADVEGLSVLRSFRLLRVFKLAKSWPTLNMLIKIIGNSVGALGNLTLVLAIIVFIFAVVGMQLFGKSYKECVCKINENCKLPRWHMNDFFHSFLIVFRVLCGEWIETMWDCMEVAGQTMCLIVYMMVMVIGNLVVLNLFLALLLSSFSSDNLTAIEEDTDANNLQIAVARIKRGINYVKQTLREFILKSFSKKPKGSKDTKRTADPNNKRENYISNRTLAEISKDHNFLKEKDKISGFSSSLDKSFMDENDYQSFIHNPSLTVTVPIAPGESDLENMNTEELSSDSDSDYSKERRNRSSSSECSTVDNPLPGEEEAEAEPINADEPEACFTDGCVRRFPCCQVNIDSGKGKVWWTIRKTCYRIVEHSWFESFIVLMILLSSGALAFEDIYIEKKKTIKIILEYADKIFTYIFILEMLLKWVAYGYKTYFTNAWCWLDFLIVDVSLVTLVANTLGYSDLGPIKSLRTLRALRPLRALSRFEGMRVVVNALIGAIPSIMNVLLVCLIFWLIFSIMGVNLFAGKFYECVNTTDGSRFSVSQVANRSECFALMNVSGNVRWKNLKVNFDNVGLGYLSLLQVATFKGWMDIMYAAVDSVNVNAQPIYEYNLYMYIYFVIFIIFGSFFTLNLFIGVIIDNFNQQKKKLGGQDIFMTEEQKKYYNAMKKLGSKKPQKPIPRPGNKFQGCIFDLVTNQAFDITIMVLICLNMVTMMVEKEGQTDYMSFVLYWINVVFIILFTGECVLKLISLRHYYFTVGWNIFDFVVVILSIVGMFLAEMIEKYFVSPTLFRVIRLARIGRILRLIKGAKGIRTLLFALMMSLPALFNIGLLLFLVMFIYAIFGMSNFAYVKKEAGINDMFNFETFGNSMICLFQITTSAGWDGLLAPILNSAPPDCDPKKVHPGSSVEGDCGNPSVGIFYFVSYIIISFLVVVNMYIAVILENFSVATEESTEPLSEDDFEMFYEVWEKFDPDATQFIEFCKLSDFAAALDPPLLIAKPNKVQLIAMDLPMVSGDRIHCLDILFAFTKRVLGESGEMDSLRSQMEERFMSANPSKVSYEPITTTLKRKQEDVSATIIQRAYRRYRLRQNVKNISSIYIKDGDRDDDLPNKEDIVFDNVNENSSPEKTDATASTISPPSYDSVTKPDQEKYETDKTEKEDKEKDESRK
Protocol: as §1, §2

[6] = system: mice (adult female Swiss); test: hot-plate test (heat sensitivity); type: in vivo, mouse; conditions: 55.0°C
Description: as §4
Each mouse, injected or not with PBS +0.1% BSA or toxin solution in the right hind limb, was put on a hot-plate (HCP No. 35150, Ugo Basile, Italy) set at the temperature of 55.0°C ± 0.2°C 15–30 min after limb injection. The measured parameter as the first pain-related manifestation was the latency (in seconds) for the animal to shake the right hind limb ([Deuis et al., 2017]). This latency, considered as a painful response to heat, was recorded simultaneously by two observers (one being blind to treatment group) with a timer integrated into the set-up. A maximal cut-off time of 30 s was used to prevent tissue damage.

Nav1.7 = conditions: cited from earlier work
N-type calcium channels = conditions: cited from earlier work

## NC1=N[C@H](O)[C@H]2[C@H]3O[C@]4(O)O[C@@H]([C@@H](O)[C@@]2(N1)[C@@H]4O)[C@]3(O)CO [TTX, tetrodotoxin, reference compound]
[1]
  Na+ current remaining (% of initial peak amplitude): 9.5% ± 1.7
[2]
  Na+ current remaining (% of initial peak amplitude): 64.8% ± 4.2

## maurocalcin: a scorpion venom peptide (GDCLPHLKLCKENKDCCSKKCKRRGTNIEKRCR; UniProt P60254 1-33, looked up)
Ryanodine receptor
  effect of phosphorylation by protein kinase A: converts the peptide from an allosteric activator to a ryanodine receptor blocker

## CC[C@H](C)[C@H](NC(=O)[C@H](CCC(N)=O)NC(=O)[C@H](Cc1ccc(O)cc1)NC(=O)[C@H](CCCCN)NC(=O)[C@@H]1CSSC[C@@H]2NC(=O)[C@H](CCC(N)=O)NC(=O)[C@H](CC(=O)O)NC(=O)[C@H](CC(N)=O)NC(=O)[C@H](CO)NC(=O)[C@@H]3CCCN3C(=O)[C@H](CC(N)=O)NC(=O)[C@@H]3CSSC[C@H](NC(=O)[C@H](C(C)C)NC(=O)[C@H](CC(C)C)NC(=O)[C@H](CCCCN)NC(=O)[C@H](CO)NC(=O)[C@H](CO)NC(=O)[C@H](CCCCN)NC(=O)[C@H](CSSC[C@H](NC(=O)[C@@H](N)CCC(=O)O)C(=O)N[C@@H](CC(C)C)C(=O)N[C@@H](CCC(=O)O)C(=O)N[C@@H]([C@@H](C)CC)C(=O)N[C@@H](Cc4ccccc4)C(=O)N[C@@H](CCCCN)C(=O)N[C@@H](C)C(=O)N3)NC2=O)C(=O)N[C@@H](CO)C(=O)N[C@@H](CCCNC(=N)N)C(=O)N[C@@H](CCCCN)C(=O)N[C@@H]([C@@H](C)O)C(=O)N[C@@H](CCCNC(=N)N)C(=O)N[C@@H](Cc2c[nH]c3ccccc23)C(=O)N1)C(=O)NCC(=O)O [sHwTx-IV GCOOH]
[3]; 98 nmol/kg intraplantar, 15–30 min, versus vehicle, P < 0.010
  force intensity for hind limb withdrawal: significantly (P < 0.010) increased
[3]; 14–98 nmol/kg intraplantar
  dose efficiency difference between both peptides, von Frey: no dose efficiency difference could be observed between both peptides
C57Bl6 mice
  animals with signs of hindlimb weakness: Seven out of 10
  death: none of the animals died
  distance travelled: unaffected
  duration of activity: unaffected
  number of movements, 60 min: accentuated 60 min later
  number of movements, first 10 min: reduction in the number of movements
  rearing events: reduced
  signs of suffering: no signs of suffering
hNav1.5
  inhibition of hNav1.5: no inhibition up to 3,300 nM
hNav1.4
  inhibition of hNav1.4: not affected
[4]
  IC50: 2000 nM
  nH (Hill number): 0.8
[4]; 130 nM
  block of TTX-R Na+ currents: largely sparring
[1]
  IC50: 14 nM
  TTX-S peak current amplitude after wash-out: −3.2 ± 0.7 nA
  TimeA (10% to 90% current increase, activation): 0.31 ± 0.06 ms and 0.27 ± 0.07 ms and 0.28 ± 0.11 ms
  TimeI (90% to 10% current decrease, inactivation): 6.93 ± 1.23 ms and 6.66 ± 1.42 ms and 6.59 ± 1.24 ms
  effect on activation or inactivation kinetics: did not alter activation or inactivation kinetics
  fold more potent on TTX-S DRG currents than on mNav1.7 currents: 11.8 fold
  fold more potent than HwTx-IV on mouse DRG TTX-S Na+ currents: 9.5 fold
  nH (Hill number): 0.7
  reversibility of effect on TTX-S current: reversible
  slope (kG) of conductance-voltage curves: slight, but significant (P < 0.002), changes
[1]; 13 nM, n = 4
  VI50% (voltage of 50% inactivation): −82 ± 2 mV
[1]; 13 nM, n = 5
  VA50% (voltage of 50% maximal conductance): −32 ± 1 mV
[1]; 130 nM
  block of TTX-S Na+ currents: potently blocked
[1]; 130 nM, n = 8
  time to stationary TTX-S peak current block: 2.6 ± 0.6 min
hNav1.7
  fold less potent than HwTx-IV on hNav1.7: 16 fold
hNav1.7; hNav1.7 (Figure 4c)
  nH (Hill number): −0.98
hNav1.7; hNav1.7 in CHO cells (Figure 4a)
  nH (Hill number): −0.97
[5]
  death: absence of death
  toxicity (behaviour) after intraplantar injection: no abnormal mice behavior
mNav1.7
  nH (Hill number): −0.90
[6]; 10–98 nmol/kg intraplantar, 15–30 min, versus vehicle, P < 0.050
  reaction time to heat (latency to shake hind limb): significant (P < 0.050) increase in the reaction time to heat
[6]; intraplantar
  threshold analgesic dose, hot-plate: 10 nmol/kg

## protoxin-II: protoxin-II, Nav1.7 selective to a large extent [reference compound]
[1]; 0.01 µM
  inhibition of Na+ current: 80%
Nav1.7
  Nav1.7 selectivity: Nav1.7 selective to a large extent

## ω-conotoxin MVIIA
N-type calcium channels
  fold better affinity than non-amidated ω-conotoxin MVIIA-Gly-COOH: 10 fold
